Measured values from ChEMBL document CHEMBL5728472, “Triazolopyrimidine, triazolopyridine compounds, and the composition thereof for treating PRC2-mediated diseases” (2021).

Biological target: Histone-binding protein RBBP4/Histone-lysine N-methyltransferase EZH2/Polycomb protein EED/Polycomb protein SUZ12 (Homo sapiens, UniProt O75530+Q09028+Q15022+Q15910)
Assay: TR-FRET Assay: The TR-FRET method was used to measure the PRC2 enzyme activity. First, the enzyme was mixed with compounds at different concentrations and incubated for 30 min at room temperature. The biotin-labeled histone H3 peptide substrate and the cofactor S-adenosylmethionine (SAM) were added to initiate the enzymatic reaction. After reaction was performed at room temperature for 4 hour, Acceptor and Donor were added and incubated for half an hour. The multifunctional microplate reader EnVision (Perkin Elmer Inc.) was used to detect the fluorescence signal.
Assay type: protein-complex assay

Chain of Histone-binding protein RBBP4/Histone-lysine N-methyltransferase EZH2/Polycomb protein EED/Polycomb protein SUZ12 (Q15910 whole entry): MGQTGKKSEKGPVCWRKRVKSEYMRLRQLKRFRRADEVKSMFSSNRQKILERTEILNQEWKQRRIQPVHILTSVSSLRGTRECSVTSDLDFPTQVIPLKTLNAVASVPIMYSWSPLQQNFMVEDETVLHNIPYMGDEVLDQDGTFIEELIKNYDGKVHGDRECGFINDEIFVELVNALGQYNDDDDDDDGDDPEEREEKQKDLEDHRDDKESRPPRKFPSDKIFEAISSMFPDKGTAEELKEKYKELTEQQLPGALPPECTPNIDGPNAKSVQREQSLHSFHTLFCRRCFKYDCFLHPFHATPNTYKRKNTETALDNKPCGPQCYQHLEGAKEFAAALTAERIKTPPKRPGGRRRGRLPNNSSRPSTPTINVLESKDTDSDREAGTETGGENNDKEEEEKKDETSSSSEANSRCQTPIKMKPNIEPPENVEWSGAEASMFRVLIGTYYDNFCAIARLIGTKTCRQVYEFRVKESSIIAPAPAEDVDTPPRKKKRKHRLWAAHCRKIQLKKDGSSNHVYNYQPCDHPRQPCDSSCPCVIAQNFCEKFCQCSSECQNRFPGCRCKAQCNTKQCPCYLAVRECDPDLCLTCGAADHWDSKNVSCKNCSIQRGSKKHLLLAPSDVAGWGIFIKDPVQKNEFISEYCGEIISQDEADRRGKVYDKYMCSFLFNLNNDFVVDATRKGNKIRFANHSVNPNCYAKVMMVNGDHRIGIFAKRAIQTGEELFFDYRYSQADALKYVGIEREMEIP
Chain of Histone-binding protein RBBP4/Histone-lysine N-methyltransferase EZH2/Polycomb protein EED/Polycomb protein SUZ12 (O75530 whole entry): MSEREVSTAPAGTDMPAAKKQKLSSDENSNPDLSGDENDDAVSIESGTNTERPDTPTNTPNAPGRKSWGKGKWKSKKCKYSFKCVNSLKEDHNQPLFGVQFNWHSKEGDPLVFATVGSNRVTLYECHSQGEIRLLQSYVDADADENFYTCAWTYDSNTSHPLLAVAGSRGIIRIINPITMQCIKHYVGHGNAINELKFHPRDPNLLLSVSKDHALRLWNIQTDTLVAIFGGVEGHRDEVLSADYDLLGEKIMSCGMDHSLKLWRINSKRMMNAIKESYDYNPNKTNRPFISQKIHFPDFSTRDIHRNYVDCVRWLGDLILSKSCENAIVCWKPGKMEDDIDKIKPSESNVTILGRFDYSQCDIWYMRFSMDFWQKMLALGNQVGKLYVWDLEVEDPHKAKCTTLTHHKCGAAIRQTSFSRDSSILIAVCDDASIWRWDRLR
Chain of Histone-binding protein RBBP4/Histone-lysine N-methyltransferase EZH2/Polycomb protein EED/Polycomb protein SUZ12 (Q15022 whole entry): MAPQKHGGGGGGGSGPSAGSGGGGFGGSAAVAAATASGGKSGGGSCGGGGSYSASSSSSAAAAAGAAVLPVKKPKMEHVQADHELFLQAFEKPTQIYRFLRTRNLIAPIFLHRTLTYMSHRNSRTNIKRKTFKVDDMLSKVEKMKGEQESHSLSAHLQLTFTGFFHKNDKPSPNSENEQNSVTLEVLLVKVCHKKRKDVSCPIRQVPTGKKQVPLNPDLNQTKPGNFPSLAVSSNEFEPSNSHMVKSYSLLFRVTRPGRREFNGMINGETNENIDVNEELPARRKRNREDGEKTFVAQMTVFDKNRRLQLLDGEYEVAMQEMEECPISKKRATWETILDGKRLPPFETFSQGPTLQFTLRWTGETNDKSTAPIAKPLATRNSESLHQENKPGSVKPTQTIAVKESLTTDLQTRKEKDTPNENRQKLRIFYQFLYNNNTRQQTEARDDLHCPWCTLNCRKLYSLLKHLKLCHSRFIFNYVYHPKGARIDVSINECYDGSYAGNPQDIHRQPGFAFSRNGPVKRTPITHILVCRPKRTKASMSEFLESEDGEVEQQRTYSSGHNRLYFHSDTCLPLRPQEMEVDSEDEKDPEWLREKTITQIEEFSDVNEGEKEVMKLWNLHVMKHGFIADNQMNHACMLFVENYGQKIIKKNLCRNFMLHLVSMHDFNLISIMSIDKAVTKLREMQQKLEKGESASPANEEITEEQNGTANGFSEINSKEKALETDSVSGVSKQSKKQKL
Chain of Histone-binding protein RBBP4/Histone-lysine N-methyltransferase EZH2/Polycomb protein EED/Polycomb protein SUZ12 (Q09028 whole entry): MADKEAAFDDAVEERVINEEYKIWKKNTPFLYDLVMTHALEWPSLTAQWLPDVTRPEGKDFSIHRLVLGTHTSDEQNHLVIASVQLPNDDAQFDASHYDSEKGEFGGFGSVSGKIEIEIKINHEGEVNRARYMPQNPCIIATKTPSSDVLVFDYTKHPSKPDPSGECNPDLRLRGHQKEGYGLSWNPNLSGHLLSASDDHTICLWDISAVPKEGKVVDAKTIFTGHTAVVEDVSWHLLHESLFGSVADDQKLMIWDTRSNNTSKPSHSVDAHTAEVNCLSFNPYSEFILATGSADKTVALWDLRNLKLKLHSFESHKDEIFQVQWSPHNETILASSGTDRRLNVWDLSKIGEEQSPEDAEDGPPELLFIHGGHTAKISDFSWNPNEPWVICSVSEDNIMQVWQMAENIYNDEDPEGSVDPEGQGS

Structure (SMILES)	IC50
COC(=O)N1CC=C(c2cnc(NCc3c(F)ccc4c3CCO4)n3cnnc23)CC1	2.5 nM
Fc1ccc2c(c1CNc1ncc(C3=CCNCC3)c3nncn13)CCO2	218 nM
